{"source": "patent US12186304B2", "about": "“Method for treating cancer by combination of IAP inhibitor and modulator of immune checkpoint molecule” (ASCENTAGE PHARMA (SUZHOU) CO., LTD., priority 2018, dated 2025)", "key": {"[1]": {"system": "murine A20 lymphoma cells", "assay": "Subcutaneous xenograft model of murine A20 lymphoma", "format": "in vivo, female BALB/c mice", "details": "A20 s.c.", "protocol": "• (1) APG-1387: provided by Jiangsu Ascentage Pharmaceutical Development Co., Ltd. The batch number is R12JA076140-A2 and PAPG-1387-DP-201305A. Preserved at 4° C., away from the light and sealed. APG-1387 was administered intravenously (i.v.) or intraperitoneally (i.p.) or at a dosage of 10 mL/kg. APG-1387 was dissolved in 5% castor oil/10% PEG400/85% normal saline. • (2) Anti-PD-1 antibody: purchased from BioXcell. The article number is BE0146 and BE0273. Preserved at 4° C. and sealed. The anti-PD-1 antibody was administered intraperitoneally at a concentration of 100 μg per mice or 200 μg per mice. • (3) Isotype control (anti-IgG): purchased from BioXcell, the product number is BE0089. Preserved at 4° C. and sealed. […]\nThe mice were injected subcutaneously with 0.5-10×10^6 cells or in the ovary with 6×10^6 cells in situ to build the tumor xenograft model. […] For the orthotopic model, tumor growth was measured by examining in vivo fluorescence images 10 days after inoculation. […] Body weight and tumor size were measured twice per week during the experiment. […]\nThe calculation of tumor related parameters is the same as set forth in Example 1. Using the fluorescence imaging technique, the strength of the fluorescent signal can represent the growth and metastasis of tumors in vivo. […]"}, "CT26 colorectal cancer": {"system": "CT26 colorectal cancer", "assay": "Combination therapy in CT26 mouse colorectal cancer model", "format": "in vivo", "details": "for T/C (%) value on day 18 after administration: APG-1387 0.2 mg/kg i.v. once daily, docetaxel 8 mg/kg i.p. once weekly, anti-PD-1 200 μg/mouse i.p. twice weekly", "protocol": "Cell inoculation method was used to establish a […] tumor-immunized normal mouse subcutaneous homograft tumor model: tumor cells in logarithmic growth phase were collected, counted, and then resuspended in 1×PBS. The concentration of the cell suspension was adjusted to 2.5-5×10^7/mL. Tumor cells, 5-10×10^6/0.2 mL/mouse, were inoculated subcutaneously in the right back of the immunized normal mouse with a 1 mL syringe ([…]). All animal experimental operations were strictly in accordance with standards for use and management of laboratory animals by Gima Gene Co., Ltd and Suzhou Yasheng Pharmaceutical Co., Ltd. Relevant parameters were calculated with reference to China's NMPA “Guidelines for Non-clinical Research Techniques of Cytotoxic Antitumor Drugs”.\nAnimal weight and tumor size were measured twice a week during the experiment. Animals were observed daily for status and the occurrence of death. Routine monitoring included the effects of tumor growth and treatment on the normal behaviors of animals, specifically including the activity, feeding and drinking, weight gain or loss, eyes, clothing hair, as well as other abnormalities of the laboratory animals. The deaths and clinical symptoms observed during the experiment were recorded in the original data. The whole process of administration, measurement of mouse weight and tumor volume was carried out in an ultra-clean bench. According to requirements of the experimental program, plasma and tumor tissue were collected, weighed and photographed for record after the end of last administration. Plasma and tumor samples were frozen at −80° C. for later use.\nTumor volume (TV) was calculated as TV=a×b^2/2, wherein a and b represented the length and width of tumor measurement, respectively.\nRelative tumor volume (RTV) was calculated as RTV=Vt/V1, wherein V1 was the tumor volume at the time of grouping administration, and Vt was the tumor volume measured on day t after administration.\nThe evaluation index of anti-tumor activity was relative tumor proliferation rate T/C (%), and was calculated as: relative tumor proliferation rate T/C (%)=(TRTV/CRTV)×100%, wherein TRTV was RTV in treatment group, and CRTV was RTV in vehicle control group.\nTumor remission rate (%) was the number of SD (stable disease), PR (partial regression) and CR (complete regression) in tumor-bearing mice after treatment divided by the total number of mice in that group×100%. CR refers to the complete regression of the tumor, which means the tumor is inaccessible after treatment. PR refers to the partial regression of the tumor, which means tumor volume becomes smaller than before treatment. SD refers to stable tumor progression, which means tumor volume is the same as before treatment. Change of body weight (%)=(measurement of body weight−body weight when grouping)/body weight when grouping×100%.\nEfficacy evaluation criteria: according to China's NMPA “Guidelines for Non-clinical Research Techniques of Cytotoxic Antitumor Drugs” (November 2006), T/C (%) value 40% and p<0.05 by statistical analysis were considered as efficacious. If the weight loss of mice exceeded 20%, or the drug-related death percentage exceeded 20%, the drug dose was considered to be severely toxic.\nAccording to Clarke R., Issues in experimental design and endpoint analysis in the study of experimental cytotoxic agents in vivo in breast cancer and other models [J].\nA tumor model of CT26 colorectal cancer mouse was established, and the combined anti-tumor effect of APG-1387 with anti-PD-1 antibody and docetaxel was evaluated on this model. The administration regimen was as follows:\nAPG-1387 monotherapy group: 0.2 mg/kg, intravenous injection, once daily for a total of 17 days;\nDocetaxel monotherapy group: 8 mg/kg, intraperitoneal injection, once weekly for a total of 17 days;\nAnti-PD-1 antibody monotherapy group: 200 μg/mouse, intraperitoneal injection, twice weekly for a total of 2.5 weeks (i.e., 17 days); […]"}}, "data": [{"smiles": "CC(=O)O[C@@]12CO[C@@H]1C[C@H](O)[C@@]1(C)C(=O)[C@H](O)C3=C(C)[C@@H](OC(=O)[C@H](O)[C@@H](NC(=O)OC(C)(C)C)c4ccccc4)C[C@@](O)([C@@H](OC(=O)c4ccccc4)[C@H]21)C3(C)C", "note": "[Docetaxel, docetaxel]", "values": [{"measurement": "anti-tumor effect on the 24th day after administration", "setting": "[1]", "result": "not significant"}, {"measurement": "T/C (%) value on day 18 after administration", "setting": "CT26 colorectal cancer", "result": 66, "unit": "%"}, {"measurement": "T/C (%) value on day 18 after administration", "setting": "CT26 colorectal cancer; listed as docetaxel", "result": 66, "unit": "%"}, {"measurement": "Tumor remission rate on day 18 after administration (%)", "setting": "CT26 colorectal cancer; day 18", "result": 25, "unit": "%"}, {"measurement": "Tumor remission rate on day 18 after administration: animals with SD/PR/CR per animals in group", "setting": "CT26 colorectal cancer; day 18", "result": "1/4 SD"}, {"measurement": "Tumor remission rate on day 18 after administration: animals with SD/PR/CR per animals in group", "setting": "CT26 colorectal cancer; day 18, listed as docetaxel", "result": "¼"}]}]}
